Experimental findings from ChEMBL document CHEMBL4715821, “Discovery of 4-ethoxy-7H-pyrrolo[2,3-d]pyrimidin-2-amines as potent, selective and orally bioavailable LRRK2 inhibitors” (Bioorg Med Chem Lett, 2018) are described below.

Data set [1] addresses T1, Leucine-rich repeat serine/threonine-protein kinase 2 (Homo sapiens, UniProt Q5S007). Kind of data set: Inhibition of recombinant His6-Tev-LRRK2 (1326 to 2527 residues) (unknown origin) using LRRKtide as substrate preincubated for 30 mins followed by substrate addition and measured after 2 hrs in presence of ATP by TR-FRET assay. A general note: TR-FRET usually uses a lanthanide donor and a delayed reading to cut background.

Data set [2] addresses T1, Leucine-rich repeat serine/threonine-protein kinase 2. Nature of the data set: Inhibition of recombinant full-length LRRK2 (unknown origin) expressed in SH-SY5Y cells assessed as reduction in Ser935 phosphorylation after 60 mins by Alpha Screen assay. The data set is classed as cell-based. In general terms: Bead proximity is the source of the signal in Alpha formats.
Data set [3] can be described thus: Metabolic stability in human liver microsomes assessed as intrinsic clearance. The class given is ADME, Microsome.
Data set [4] is described as follows: Solubility of the compound in FaSSIF measured after 4 hrs. The class given is physicochemical.
A short description of data set [5]: Lipophilicity, logD of compound at pH 7.4. The note with it: buffer.
Data set [6] is described as follows: Permeability ratio across apical side to basolateral side in MDCK2 cells transfected with Bacmam virus containing human BCRP at 3 uM after 90 mins in presence or absence of GF120918 by transwell assay. The class given is ADME, cell-based, Canis lupus familiaris. The note with it: dog, mdck-ii, 1.5 h.
A short description of data set [7]: Artificial membrane permeability by PAMPA method. The data set is classed as ADME. The note with it: read-out: permeability.
The target of data set [8] is Tyrosine-protein kinase JAK2 (Homo sapiens) (UniProt O60674). Nature of the data set: Inhibition of JAK2 (unknown origin) at 1 uM by radioactivity-based enzymatic assay relative to control.
For data set [9], the target named is T2, Mitogen-activated protein kinase kinase kinase kinase 3 (Homo sapiens) (UniProt Q8IVH8).
T2 sequence (whole entry): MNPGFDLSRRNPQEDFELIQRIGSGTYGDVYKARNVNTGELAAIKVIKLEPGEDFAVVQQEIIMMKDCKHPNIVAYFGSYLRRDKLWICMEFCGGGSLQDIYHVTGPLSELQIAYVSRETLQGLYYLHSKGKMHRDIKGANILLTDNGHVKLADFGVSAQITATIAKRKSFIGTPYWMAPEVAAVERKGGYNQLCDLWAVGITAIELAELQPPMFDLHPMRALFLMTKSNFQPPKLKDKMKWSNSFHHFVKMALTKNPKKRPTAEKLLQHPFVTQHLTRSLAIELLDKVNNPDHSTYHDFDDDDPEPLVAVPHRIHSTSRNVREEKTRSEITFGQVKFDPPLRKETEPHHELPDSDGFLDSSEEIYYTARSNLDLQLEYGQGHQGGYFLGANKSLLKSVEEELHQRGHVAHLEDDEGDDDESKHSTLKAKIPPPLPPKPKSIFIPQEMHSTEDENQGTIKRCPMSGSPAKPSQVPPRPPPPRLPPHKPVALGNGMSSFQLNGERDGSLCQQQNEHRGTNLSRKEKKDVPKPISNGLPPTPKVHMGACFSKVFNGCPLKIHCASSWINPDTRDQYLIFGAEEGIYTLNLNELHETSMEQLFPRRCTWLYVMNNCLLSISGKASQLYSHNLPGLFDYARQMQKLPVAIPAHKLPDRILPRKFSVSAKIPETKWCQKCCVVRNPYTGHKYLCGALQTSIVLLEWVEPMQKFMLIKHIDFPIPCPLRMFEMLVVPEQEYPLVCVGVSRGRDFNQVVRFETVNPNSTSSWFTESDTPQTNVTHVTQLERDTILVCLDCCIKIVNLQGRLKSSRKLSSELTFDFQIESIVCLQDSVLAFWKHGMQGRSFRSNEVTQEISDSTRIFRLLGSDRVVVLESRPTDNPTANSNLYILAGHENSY
Nature of the data set: Inhibition of MAP4K3 (unknown origin) at 1 uM by radioactivity-based enzymatic assay relative to control.

Data set [10] addresses Tyrosine-protein kinase SYK (Homo sapiens) (UniProt P43405). Kind of data set: Inhibition of SYK (unknown origin) at 1 uM by radioactivity-based enzymatic assay relative to control.
In data set [11] the target is T3, Interleukin-1 receptor-associated kinase 4 (Homo sapiens) (UniProt Q9NWZ3).
T3 sequence (whole entry): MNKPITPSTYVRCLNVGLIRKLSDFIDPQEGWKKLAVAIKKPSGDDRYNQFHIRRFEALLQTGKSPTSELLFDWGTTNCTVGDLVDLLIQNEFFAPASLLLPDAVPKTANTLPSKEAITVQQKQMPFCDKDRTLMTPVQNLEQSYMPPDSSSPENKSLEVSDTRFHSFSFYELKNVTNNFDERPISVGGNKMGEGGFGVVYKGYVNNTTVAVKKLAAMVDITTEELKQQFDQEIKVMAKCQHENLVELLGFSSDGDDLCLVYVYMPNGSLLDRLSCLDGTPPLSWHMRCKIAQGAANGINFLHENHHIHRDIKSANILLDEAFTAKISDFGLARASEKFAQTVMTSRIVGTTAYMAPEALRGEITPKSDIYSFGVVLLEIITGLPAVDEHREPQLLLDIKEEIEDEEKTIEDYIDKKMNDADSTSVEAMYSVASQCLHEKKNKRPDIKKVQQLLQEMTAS
Nature of the data set: Inhibition of IRAK4 (unknown origin) at 1 uM by radioactivity-based enzymatic assay relative to control.

Data set [12] has as its target Mitogen-activated protein kinase kinase kinase 9 (Homo sapiens) (UniProt P80192). Nature of the data set: Inhibition of MLK1 (unknown origin) at 1 uM by radioactivity-based enzymatic assay relative to control.
Data set [13] can be described thus: Dose normalized AUC (0 to t) in Han-Wistar rat blood at 2 mg/kg, po measured up to 7 hrs by UPLC-MS/MS analysis. The note with it: in vivo. The class given is ADME, organism-based.
Data set [14] can be described thus: Unbound fraction in Han-Wistar rat brain at 2 mg/kg, po. The data set is classed as ADME, organism-based.
The nature of data set [15]: Dose normalized AUC (0 to t) in Han-Wistar rat brain at 2 mg/kg, po measured up to 7 hrs by UPLC-MS/MS analysis. The class given is ADME, organism-based. The settings on record: in vivo.
A short description of data set [16]: Ratio of total drug concentration in brain to blood in Han-Wistar rat at 2 mg/kg, po. The class given is ADME, organism-based.

For orientation: IC50 means the concentration that gives 50% inhibition. For orientation: solubility means the dissolved amount per volume that the medium holds. A low value points to little dissolved substance. In general, logD refers to the decadic logarithm of the distribution of all forms, ionised or not, between an organic phase and buffer at a given pH. One may read the inhibition as how much of the control response was suppressed. As usually defined, the fraction unbound is free concentration divided by total concentration. One may read the Kp as tissue or fluid exposure divided by exposure in the circulation.

Values after ≈ are worked out from the molar mass of the structure shown.

T1 sequence (Q5S007 whole entry, the tested form may be a part): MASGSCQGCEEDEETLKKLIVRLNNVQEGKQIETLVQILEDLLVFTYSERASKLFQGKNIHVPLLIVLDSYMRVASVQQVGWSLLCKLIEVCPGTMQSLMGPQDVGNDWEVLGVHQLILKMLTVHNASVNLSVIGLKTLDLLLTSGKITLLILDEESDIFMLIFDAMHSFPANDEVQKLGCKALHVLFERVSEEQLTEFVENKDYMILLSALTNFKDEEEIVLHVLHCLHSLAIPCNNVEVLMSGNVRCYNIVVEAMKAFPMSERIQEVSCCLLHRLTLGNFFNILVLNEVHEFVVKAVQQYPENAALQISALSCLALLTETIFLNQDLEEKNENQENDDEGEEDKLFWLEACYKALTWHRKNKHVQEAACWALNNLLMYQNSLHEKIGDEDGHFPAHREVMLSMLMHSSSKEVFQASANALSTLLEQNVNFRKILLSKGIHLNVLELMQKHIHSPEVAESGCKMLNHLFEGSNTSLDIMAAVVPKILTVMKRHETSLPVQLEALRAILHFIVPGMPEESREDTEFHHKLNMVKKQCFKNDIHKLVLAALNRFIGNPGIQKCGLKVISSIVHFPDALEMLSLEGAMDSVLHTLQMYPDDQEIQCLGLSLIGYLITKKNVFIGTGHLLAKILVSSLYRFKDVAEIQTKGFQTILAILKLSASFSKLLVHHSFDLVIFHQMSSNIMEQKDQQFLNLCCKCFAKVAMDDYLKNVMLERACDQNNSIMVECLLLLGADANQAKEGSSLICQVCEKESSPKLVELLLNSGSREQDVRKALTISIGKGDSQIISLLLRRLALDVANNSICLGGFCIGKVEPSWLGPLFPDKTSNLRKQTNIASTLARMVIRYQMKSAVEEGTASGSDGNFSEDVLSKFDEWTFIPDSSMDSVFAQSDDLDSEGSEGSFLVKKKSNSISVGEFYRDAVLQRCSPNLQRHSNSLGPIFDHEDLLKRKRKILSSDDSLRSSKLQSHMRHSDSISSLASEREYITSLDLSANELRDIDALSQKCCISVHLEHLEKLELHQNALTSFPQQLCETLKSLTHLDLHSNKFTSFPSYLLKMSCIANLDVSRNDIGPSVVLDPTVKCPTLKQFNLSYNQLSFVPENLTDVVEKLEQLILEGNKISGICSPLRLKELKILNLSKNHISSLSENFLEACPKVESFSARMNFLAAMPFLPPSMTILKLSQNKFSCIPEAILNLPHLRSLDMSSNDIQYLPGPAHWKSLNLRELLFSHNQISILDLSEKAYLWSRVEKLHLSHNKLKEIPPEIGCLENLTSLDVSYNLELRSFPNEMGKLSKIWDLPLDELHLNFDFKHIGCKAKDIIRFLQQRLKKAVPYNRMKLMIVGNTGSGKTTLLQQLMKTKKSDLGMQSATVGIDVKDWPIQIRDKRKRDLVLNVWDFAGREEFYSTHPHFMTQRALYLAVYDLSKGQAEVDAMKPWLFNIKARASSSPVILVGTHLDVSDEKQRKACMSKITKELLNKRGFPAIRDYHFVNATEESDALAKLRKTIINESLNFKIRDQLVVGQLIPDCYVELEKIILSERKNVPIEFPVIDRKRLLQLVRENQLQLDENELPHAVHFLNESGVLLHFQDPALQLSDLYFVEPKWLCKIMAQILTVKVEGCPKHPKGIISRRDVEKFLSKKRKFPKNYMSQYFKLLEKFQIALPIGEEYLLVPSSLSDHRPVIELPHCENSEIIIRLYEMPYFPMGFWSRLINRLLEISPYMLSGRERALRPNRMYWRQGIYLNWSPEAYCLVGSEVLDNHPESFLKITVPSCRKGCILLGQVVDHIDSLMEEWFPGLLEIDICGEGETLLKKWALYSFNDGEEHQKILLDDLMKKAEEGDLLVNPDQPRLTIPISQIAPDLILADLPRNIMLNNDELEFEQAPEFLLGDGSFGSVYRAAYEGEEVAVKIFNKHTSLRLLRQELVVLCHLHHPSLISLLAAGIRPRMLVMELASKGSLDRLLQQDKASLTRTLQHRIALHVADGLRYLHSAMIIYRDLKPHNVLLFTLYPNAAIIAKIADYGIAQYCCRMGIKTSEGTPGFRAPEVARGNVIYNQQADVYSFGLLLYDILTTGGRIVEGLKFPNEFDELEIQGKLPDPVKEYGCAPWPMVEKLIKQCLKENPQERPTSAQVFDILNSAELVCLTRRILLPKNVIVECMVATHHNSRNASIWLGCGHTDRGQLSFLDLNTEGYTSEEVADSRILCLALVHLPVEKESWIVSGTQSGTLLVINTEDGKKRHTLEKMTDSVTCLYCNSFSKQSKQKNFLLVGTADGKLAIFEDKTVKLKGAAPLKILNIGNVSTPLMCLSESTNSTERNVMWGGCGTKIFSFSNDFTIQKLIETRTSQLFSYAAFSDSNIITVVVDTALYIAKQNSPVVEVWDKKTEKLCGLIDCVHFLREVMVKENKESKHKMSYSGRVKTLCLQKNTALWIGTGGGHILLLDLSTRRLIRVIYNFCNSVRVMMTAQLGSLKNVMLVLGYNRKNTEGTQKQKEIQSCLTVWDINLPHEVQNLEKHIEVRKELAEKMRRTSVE
Chain of Mitogen-activated protein kinase kinase kinase 9 (Homo sapiens) (P80192 whole entry, looked up): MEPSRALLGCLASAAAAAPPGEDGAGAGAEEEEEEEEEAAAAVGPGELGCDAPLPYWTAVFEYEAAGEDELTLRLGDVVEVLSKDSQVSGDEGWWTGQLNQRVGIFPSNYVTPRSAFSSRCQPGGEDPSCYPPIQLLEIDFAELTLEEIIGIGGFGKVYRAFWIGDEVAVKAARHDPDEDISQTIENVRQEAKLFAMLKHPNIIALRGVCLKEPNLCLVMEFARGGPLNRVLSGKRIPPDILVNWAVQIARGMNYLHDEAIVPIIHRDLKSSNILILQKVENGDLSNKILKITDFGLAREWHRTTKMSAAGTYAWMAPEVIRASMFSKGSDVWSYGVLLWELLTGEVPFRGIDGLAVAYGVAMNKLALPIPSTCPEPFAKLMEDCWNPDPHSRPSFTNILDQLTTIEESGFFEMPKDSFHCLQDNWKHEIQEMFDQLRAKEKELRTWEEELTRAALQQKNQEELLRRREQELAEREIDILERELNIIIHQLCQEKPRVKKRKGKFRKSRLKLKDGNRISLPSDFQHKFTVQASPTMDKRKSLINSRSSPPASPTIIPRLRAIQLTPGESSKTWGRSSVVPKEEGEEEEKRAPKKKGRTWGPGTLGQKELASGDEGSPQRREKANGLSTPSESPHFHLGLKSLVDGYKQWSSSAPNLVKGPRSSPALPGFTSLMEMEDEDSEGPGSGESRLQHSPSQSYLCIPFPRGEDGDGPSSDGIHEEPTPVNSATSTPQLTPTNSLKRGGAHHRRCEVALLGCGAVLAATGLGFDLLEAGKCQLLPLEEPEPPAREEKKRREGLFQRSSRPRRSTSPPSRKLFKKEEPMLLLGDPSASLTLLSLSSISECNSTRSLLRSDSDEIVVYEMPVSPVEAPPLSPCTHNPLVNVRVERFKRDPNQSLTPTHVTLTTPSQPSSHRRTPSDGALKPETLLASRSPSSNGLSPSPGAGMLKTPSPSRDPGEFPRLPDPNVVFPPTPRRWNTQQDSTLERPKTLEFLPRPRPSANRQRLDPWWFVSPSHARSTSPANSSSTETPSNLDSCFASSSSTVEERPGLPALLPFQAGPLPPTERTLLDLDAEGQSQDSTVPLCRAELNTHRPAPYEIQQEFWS
Chain of Tyrosine-protein kinase JAK2 (Homo sapiens) (O60674 whole entry): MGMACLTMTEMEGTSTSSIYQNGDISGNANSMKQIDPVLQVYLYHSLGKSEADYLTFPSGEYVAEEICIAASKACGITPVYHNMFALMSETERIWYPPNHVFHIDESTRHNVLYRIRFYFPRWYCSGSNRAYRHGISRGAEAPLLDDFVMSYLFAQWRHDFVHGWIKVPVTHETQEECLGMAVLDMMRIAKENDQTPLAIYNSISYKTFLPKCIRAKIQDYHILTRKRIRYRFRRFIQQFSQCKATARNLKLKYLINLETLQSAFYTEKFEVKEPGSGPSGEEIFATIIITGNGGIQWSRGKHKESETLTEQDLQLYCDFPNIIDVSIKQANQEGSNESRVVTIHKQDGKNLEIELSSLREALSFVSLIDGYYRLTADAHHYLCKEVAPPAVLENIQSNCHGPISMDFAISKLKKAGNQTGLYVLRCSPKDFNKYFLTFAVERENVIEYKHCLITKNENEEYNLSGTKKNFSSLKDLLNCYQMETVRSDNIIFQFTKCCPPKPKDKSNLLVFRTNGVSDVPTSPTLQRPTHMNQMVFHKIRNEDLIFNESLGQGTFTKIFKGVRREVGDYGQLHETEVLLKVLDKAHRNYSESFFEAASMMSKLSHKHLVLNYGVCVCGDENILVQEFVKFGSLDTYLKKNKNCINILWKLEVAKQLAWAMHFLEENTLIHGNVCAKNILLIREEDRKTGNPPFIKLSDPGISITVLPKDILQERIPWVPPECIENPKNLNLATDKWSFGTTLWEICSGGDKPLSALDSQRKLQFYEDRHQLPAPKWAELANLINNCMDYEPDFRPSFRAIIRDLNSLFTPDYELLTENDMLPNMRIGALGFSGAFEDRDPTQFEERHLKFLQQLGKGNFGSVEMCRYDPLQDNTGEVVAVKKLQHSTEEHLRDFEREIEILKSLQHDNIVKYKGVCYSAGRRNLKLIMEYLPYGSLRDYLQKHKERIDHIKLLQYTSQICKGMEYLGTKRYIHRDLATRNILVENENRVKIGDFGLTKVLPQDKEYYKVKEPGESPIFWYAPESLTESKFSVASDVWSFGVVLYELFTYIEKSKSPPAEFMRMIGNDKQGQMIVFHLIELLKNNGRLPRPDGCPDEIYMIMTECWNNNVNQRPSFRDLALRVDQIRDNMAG

On to `CCOc1nc(Nc2ccc(C(=O)N3CCC(F)CC3)cc2OC)nc2[nH]ccc12`, for which the IC50 was 0.00631 µM in [1] and 0.316 µM in [2]. Further, in data set [3], the CLH stood at 1.1 mL/min/g. In data set [4], the solubility at 4 h is 0.0397 mg/mL (≈ 96 µM).
For `CCOc1nc(Nc2ccc(C(=O)N3CCC4(CC3)CN(C)C4)cc2OC)nc2[nH]ccc12`, the IC50 was 0.00631 µM in [1] and 0.0631 µM in data set [2]. In data set [5], this compound came in with a logD of 3. The Ratio in [6] is 5. Besides, the CLH in [3] was below 0.777 mL/min/g. Moreover, the solubility at 4 h in data set [4] is 0.621 mg/mL (≈ 1380 µM).
As to `CCOc1nc(Nc2ccc(C(=O)N3CCOC[C@H]3C)cc2OC)nc2[nH]ccc12`, the IC50 is 0.0158 µM in data set [1] and 0.0794 µM in data set [2]. In data set [5], this compound registered a logD of 5.1. The Ratio in data set [6] is on record as 2.2. Also, the CLH in data set [3] turned out to be 0.8 mL/min/g. The same compound gave a solubility at 4 h in data set [4] of 0.0788 mg/mL (≈ 192 µM).
With `CCOc1nc(Nc2ccc(C(=O)NCC(C)(C)O)cc2OC)nc2[nH]ccc12`, the IC50 in data set [1] was 0.0126 µM; in data set [2] it was 0.126 µM. The logD in data set [5] was 4.1. In data set [6], the Ratio amounted to 3.8. Besides, the CLH in [3] was determined as 0.8 mL/min/g. In data set [4], this compound registered a solubility at 4 h of 0.0255 mg/mL (≈ 63.8 µM).
With `CCOc1cc(C(=O)N2CCN(C)CC2)ccc1Nc1nc(OCC)c2cc[nH]c2n1`, the IC50 was 0.01 µM in data set [1] and 0.126 µM in data set [2].
In data set [5], `CCOc1nc(Nc2ccc(C(=O)N3CCN4CCC[C@H]4C3)cc2OC)nc2[nH]ccc12` displayed a logD of 4.9. Also, the CLH in data set [3] amounted to 3.2 mL/min/g. The compound also registered a solubility at 4 h in data set [4] of 0.309 mg/mL (≈ 709 µM).
Regarding `CCOc1nc(Nc2ccc(C(=O)N3CCOCC3)cc2OC(C)C)nc2[nH]ccc12`, the IC50 is 0.0126 µM in data set [1] and 0.631 µM in [2].
Regarding `NC(=O)c1ccc(Nc2nc(NCC(F)(F)F)c3cc[nH]c3n2)cc1`, the Papp in data set [7] came to 36 nm/s. Besides, the inhibition in data set [8], in data set [9], in [10], in [11] and in [12] was above 50% throughout. The IC50 in data set [1] is 0.0126 µM; in data set [2] it was 0.0501 µM. In addition, the logD in data set [5] was found to be 2.8. In addition, the concentration in solution in [4] (solubility at 4 h) was 0.0086 mg/mL (≈ 24.6 µM).
For the compound `CCOc1nc(Nc2ccc(C(=O)N3CC4(COC4)C3)cc2OC)nc2[nH]ccc12`, the 50% inhibitory concentration (IC50) was 0.0631 µM in data set [1] and 0.158 µM in data set [2]. In data set [5], this compound came in with a logD of 4.3. Moreover, the CLH in [3] turned out to be 1.1 mL/min/g. In data set [4], the solubility at 4 h amounted to 0.0062 mg/mL (≈ 15.1 µM).
For `CCOc1nc(Nc2ccc(C(=O)N3CCN(C)CC3)cc2OC(F)F)nc2[nH]ccc12`, the IC50 in data set [1] is below 0.000158 µM; in data set [2], 0.158 µM.
Compound `CCOc1nc(Nc2ccc(C(=O)N3CCN4CCC[C@@H]4C3)cc2OC)nc2[nH]ccc12` yielded a logD in data set [5] of 4.9. The AUCt/dose in data set [13] came to 487 ng·h/g/mg/kg; in [15], 246 ng·h/g/mg/kg. This compound came in with a fraction unbound in [14] below 0.005. The CLH in data set [3] was 2.5 mL/min/g. This compound also had a solubility at 4 h in data set [4] of 0.3 mg/mL (≈ 687 µM). Moreover, in data set [16], the Kp is 0.51.
For `CCOc1nc(Nc2ccc(C(=O)N3CCOC[C@@H]3C)cc2OC)nc2[nH]ccc12`, the half-maximal inhibitory concentration (IC50) was 0.00794 µM in [1] and 0.1 µM in data set [2]. The same compound displayed a logD in data set [5] of 5. In addition, in data set [6], the Ratio was 1.8. For the same compound, in data set [3], the CLH was 1.4 mL/min/g. Moreover, the solubility at 4 h in data set [4] was determined as 0.154 mg/mL (≈ 374 µM).
Consider `CCOc1nc(Nc2ccc(C(=O)N3CCN(C)CC3)cc2Cl)nc2[nH]ccc12`, for which the IC50 is 0.0126 µM in [1] and 0.251 µM in data set [2].
For `CCOc1nc(Nc2ccc(C(=O)N3CCN(C)CC3)cc2)nc2[nH]ccc12` the same measures were 0.0126 µM and 0.0794 µM.
For `CCOc1nc(Nc2ccc(C(=O)N3CCN(C)CC3)cc2N(C)C)nc2[nH]ccc12` the same measures were 0.2 µM and 3.16 µM.
For `CCOc1nc(Nc2ccc(C(=O)N3CCN(C)CC3)cc2F)nc2[nH]ccc12` the same measures were 0.0126 µM and 0.158 µM.
As for `CCOc1nc(Nc2ccc(C(=O)N3CCOCC3)cc2)nc2[nH]ccc12`, in data set [7], the Papp was determined as 510 nm/s. Moreover, the inhibition in data set [8], in data set [9], in data set [10], in [11] and in data set [12] was above 50% throughout. Besides, the IC50 in data set [1] was 0.00794 µM; in [2], 0.0631 µM. For the same compound, the logD in data set [5] came to 3.9. The concentration in solution in [4] (solubility at 4 h) was 0.0017 mg/mL (≈ 4.63 µM).
`CCOc1nc(Nc2ccc(C(=O)N3C[C@@H](C)O[C@@H](C)C3)cc2OC)nc2[nH]ccc12`: the results for the IC50 in data set [1] and in data set [2] were 0.0631 µM and 0.2 µM, respectively. In [5], this compound gave a logD of 5.7. In addition, in data set [3], the CLH turned out to be 1.5 mL/min/g. The amount in solution in [4] (solubility at 4 h) came to 0.0044 mg/mL (≈ 10.3 µM).
`CCOc1nc(Nc2ccc(C(=O)N3CCN(C)CC3)cc2OC)nc2[nH]ccc12`: the IC50 in data set [1] is 0.0158 µM.
